Earlier results in patent publication US20250161538A1, “POLYMER-BASED MATERIAL WITH ANTI-BACTERIAL PROPERTIES WITH IMPROVED MECHANICAL STRENGTH FOR DENTAL APPLICATIONS” (priority 2022, published 2025).

System: adult rat pulp tissue
Settings: in vivo, po

[Ag+] [Ag ions, silver]
cytotoxic effect: induce cytotoxic effect
